Tests used:
[1] = Inhibition of Trypanosoma brucei P1 transporter assessed as reduction in [3H]-adenosine uptake by scintillation counting method
[2] = Inhibition of Trypanosoma brucei P2 transporter assessed as reduction in [3H]-adenosine uptake by scintillation counting method
[3] = test system: Trypanosoma brucei brucei; experiment: Antitrypanosomal activity against Trypanosoma brucei brucei assessed as reduction in parasite growth incubated for 3 days by resazurin dye based fluorescence assay; type: functional, organism-based; conditions: 72 h
[4] = test system: Trypanosoma brucei rhodesiense; experiment: Antitrypanosomal activity against Trypanosoma brucei rhodesiense assessed as reduction in parasite growth incubated for 3 days by resazurin dye based fluorescence assay; type: functional, organism-based; conditions: 72 h
MRC5 = experiment: Cytotoxicity against human MRC5 cells assessed as reduction in cell viability incubated for 3 days by resazurin dye based fluorescence assay; conditions: MRC5, 72 h
[5] = Selectivity index, ratio of EC50 for cytotoxicity against human MRC5 cells to EC50 for antitrypanosomal activity against Trypanosoma brucei brucei; type: toxicity, cell-based; conditions: read-out: Ratio EC50
[6] = Selectivity index, ratio of EC50 for cytotoxicity against human MRC5 cells to EC50 for antitrypanosomal activity against Trypanosoma brucei rhodesiense; type: toxicity, cell-based; conditions: read-out: Ratio EC50
[7] = test system: Trypanosoma brucei brucei; experiment: Antitrypanosomal activity against Trypanosoma brucei brucei Lister 427 blood stream forms assessed as reduction in parasite viability incubated for 48 hrs by resazurin dye based fluorescence assay; type: functional, organism-based; conditions: Lister 427, 48 h
Trypanosoma brucei [8] = experiment: Antitrypanosomal activity against drug resistant Trypanosoma brucei harboring TbAT1 deficient assessed as reduction in parasite viability incubated for 48 hrs by resazurin dye based fluorescence assay; type: functional, organism-based
[9] = Resistance factor, ratio of EC50 for antitrypanosomal activity against drug resistant Trypanosoma brucei harboring TbAT1 deficient to antitrypanosomal activity against Trypanosoma brucei brucei Lister 427 blood stream form; type: functional
Trypanosoma brucei [10] = experiment: Antitrypanosomal activity against drug resistant Trypanosoma brucei B48 assessed as reduction in parasite viability incubated for 48 hrs by resazurin dye based fluorescence assay; type: functional, organism-based; conditions: B48, 48 h
[11] = Resistance factor, ratio of EC50 for antitrypanosomal activity against drug resistant Trypanosoma brucei B48 to antitrypanosomal activity against Trypanosoma brucei brucei Lister 427 blood stream form; type: functional
Trypanosoma brucei [12] = experiment: Antitrypanosomal activity against drug resistant Trypanosoma brucei ISMR1 assessed as reduction in parasite viability incubated for 48 hrs by resazurin dye based fluorescence assay; type: functional, organism-based; conditions: ISMR1, 48 h
[13] = Resistance factor, ratio of EC50 for antitrypanosomal activity against drug resistant Trypanosoma brucei ISMR1 to antitrypanosomal activity against Trypanosoma brucei brucei Lister 427 blood stream form; type: functional
[14] = (§1) Inhibition of Trypanosoma brucei P1 transporter assessed as reduction in [3H]-adenosine uptake measured after 60 sec by scintillation counting method
[15] = (§2) Inhibition of Trypanosoma brucei P2 transporter assessed as reduction in [3H]-adenosine uptake measured after 60 sec by scintillation counting method
Trypanosoma brucei [16] = experiment: as §1
Trypanosoma brucei [17] = experiment: as §2

Q: Which Ki [1] does the source give for `Nc1ncnc2c1ccn2[C@@H]1O[C@H](CO)[C@@H](O)[C@H]1O` [TUBERCIDIN] here?
A: 78000 nM

Q: What about the Ki [2] of the same molecule?
A: 3800 nM

Q: For `COc1ncnc2c1c(Cl)cn2[C@@H]1O[C@H](CO)[C@@H](O)[C@H]1O`, which EC50 [3] is on record?
A: 160 nM

Q: What about the EC50 [4] of the same molecule?
A: 36 nM

Q: And the EC50 (MRC5)?
A: ≥ 32000 nM

Q: What about the selectivity ratio [5] of the same molecule?
A: > 200

Q: What about the selectivity ratio [6] of the same molecule?
A: > 888

Q: And the EC50 [7]?
A: 100 nM

Q: What about the EC50 (Trypanosoma brucei [8]) of the same molecule?
A: 57 nM

Q: And the Ratio EC50 [9]?
A: 0.57

Q: What about the EC50 (Trypanosoma brucei [10]) of the same molecule?
A: 57 nM

Q: What about the Ratio EC50 [11] of the same molecule?
A: 0.57

Q: What about the EC50 (Trypanosoma brucei [12]) of the same molecule?
A: 84 nM

Q: What about the Ratio EC50 [13] of the same molecule?
A: 0.84

Q: What about the Ki [14] of the same molecule?
A: 35500 nM

Q: What about the Ki [15] of the same molecule?
A: 149000 nM

Q: With `Nc1ncnc2c1ncn2[C@@H]1O[C@H](CO)[C@@H](O)[C@H]1O` as the molecule, how does the Km (Trypanosoma brucei [16]) read?
A: 0.12 µM

Q: What about the Km (Trypanosoma brucei [17]) of the same molecule?
A: 0.53 µM
